{
  "source": "patent US10258635B2",
  "about": "“Formulations and compositions of vitamin D analogs for treating and preventing cancer and other diseases” (priority 2013, dated 2019)",
  "key": {"Serum-stability study": {"assay": "Serum-stability study", "assay_type": "in vitro ADME", "conditions": "pooled human serum, 37° C., 60 minutes, HPLC", "protocol": "The organic layer was dried in a stream of nitrogen and the residue was analyzed by HPLC (5% H2O— 95% methanol 1.5 ml/min, 265 nm detection, Agilent C18 column)."}, "DU-145 cells": {"tested_on": "DU-145 cells", "assay": "3H-thymidine incorporation assay in DU-145 cells", "assay_type": "cell-based, human"}, "[1]": {"tested_on": "DU-145 human prostate cancer cells", "assay": "DU-145 xenograft efficacy, i.p. administration (Example 10)", "assay_type": "in vivo, athymic mice", "protocol": "Male, athymic mice (average weight 20 gm) were fed normal rat chow and water ad libitum. They were inoculated with DU 145 cells, grown in culture in their flanks under light anesthesia. When the tumor size grew to approximately 100 mm^3 the animals were randomized into groups of ten (10) tumor-bearing animals, and they were given AMPI-109 (0.1 μg/kg), calcitriol (0.5 and 1 μg/kg), and vehicle (5% DMA in sesame oil) by intraperitoneal injection (i.p.) on every third day (when body weights were determined); and one group was left untreated. Treatment started on day 11 and stopped on day 30; and they were left untreated for two (2) additional days when they were sacrificed."}, "[2]": {"tested_on": "LNCaP, PC-3 and DU-145 prostate cancer cells", "assay": "Anti-proliferation and apoptosis in prostate cancer cells (summary)", "assay_type": "cell-based"}, "24-OHase": {"tested_on": "24-OHase", "assay": "Message for 24-OHase in LNCaP cells", "assay_type": "cell-based"}, "VDR": {"target": "VDR (Homo sapiens, UniProt P11473)", "sequence (P11473 whole entry)": "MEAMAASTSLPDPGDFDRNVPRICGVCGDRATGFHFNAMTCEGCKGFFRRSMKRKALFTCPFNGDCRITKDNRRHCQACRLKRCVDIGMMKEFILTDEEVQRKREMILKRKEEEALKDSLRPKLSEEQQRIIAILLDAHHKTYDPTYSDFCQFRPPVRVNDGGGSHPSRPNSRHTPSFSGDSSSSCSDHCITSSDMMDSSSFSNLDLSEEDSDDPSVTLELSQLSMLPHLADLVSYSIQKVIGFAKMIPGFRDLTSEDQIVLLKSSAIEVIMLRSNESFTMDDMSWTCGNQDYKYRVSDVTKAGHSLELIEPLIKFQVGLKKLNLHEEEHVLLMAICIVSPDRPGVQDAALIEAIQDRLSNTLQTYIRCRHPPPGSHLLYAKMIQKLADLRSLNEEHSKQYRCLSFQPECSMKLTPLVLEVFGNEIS", "assay": "Covalent linking to and activation of VDR", "assay_type": "biochemical", "conditions": "covalent link in ligand-binding pocket via a cysteine residue"}, "[3]": {"assay": "Maximum tolerated dose of AMPI-109 in DU-145 tumor-bearing SCID mice", "assay_type": "in vivo", "protocol": "DU-145 prostate cancer cells (ATCC, Manassas, Va.) were grown in culture, and then approximately 5 million cells/animal was injected under the skin in the flank area of SCID mice (Charles River). Tumors grew in 2-3 weeks, and when they reached a size of approximately 1 cm^3, they were injected with 0.1, 0.5 and 1 μg/kg dose of AMPI-109 (in 5% […] in sesame oil) intraperitoneally. Dosing levels were limited by concentrations and volumes. Each group had six mice. Dosing was carried out every third day and weight of each mouse was recorded."}, "[4]": {"assay": "Stability study in liver homogenate", "assay_type": "in vitro ADME, mouse", "conditions": "37° C., 60 minutes, HPLC", "protocol": "Pieces of liver, obtained from normal mice were minced and homogenized in phosphated saline with a polytron. […] The organic layer was dried in a stream of nitrogen and the residue was analyzed by HPLC (as above)."}, "[5]": {"tested_on": "LNCaP prostate cancer cells", "assay": "3H-thymidine incorporation assay, APH-0701 vs naked AMPI-109", "assay_type": "cell-based", "protocol": "Antiproliferative activities in these cells were measured by ^3H-thymidine incorporation assay."}, "[6]": {"tested_on": "RCC 54 kidney cancer cells", "conditions": "7.5×10^−7 to 10^−6M", "method": "In a typical assay cells were grown to 50-60% confluence in 24-well plates in respective media containing 5% FBS, and serum starved for 20 hours, followed by treatment with various agents (in 0.1% ethanolic solution) or ethanol (vehicle) in serum-containing medium for 16 hours. After the treatment media was removed from the wells and replaced with media containing ^3H-thymidine (Sigma, 0.1 μCi) per well, and the cells were incubated for 3 hours at 37° C. After this period media was removed by aspiration and the cells were washed thoroughly (3×0.5 ml) with PBS. Ice-cold 5% perchloric acid solution (0.5 ml) was added to each well and the cells were incubated on ice for 20 minutes. After this incubation, perchloric acid was removed by aspiration, replaced with 0.5 ml of fresh perchloric acid solution and the cells were incubated at 70° C. for 20 minutes. Solution from each well was mixed with scintillation fluid and counted in a liquid scintillation counter. There were eight (8) wells per sample; statistics was carried out by Student's t test."}, "[7]": {"tested_on": "DU-145 human prostate cancer cells", "assay": "DU-145 xenograft efficacy, p.o. administration (Example 11)", "assay_type": "in vivo, nude mice"}, "[8]": {"tested_on": "DU-145 human prostate cancer cells", "assay": "DU-145 xenograft, AMPI-109 vs APH-0701 (Example 12)", "assay_type": "in vivo, athymic mice", "conditions": "0.5 μg/Kg", "protocol": "Male, athymic mice (average weight 20 gm) were fed normal rat chow and water ad libitum. They were inoculated with DU-145 cells (5×10^6 cells, dispersed in 100 μl PBS) in the flank."}, "normal kidney cells": {"tested_on": "normal kidney cells", "assay": "3H-thymidine incorporation assay in normal kidney cells", "assay_type": "cell-based", "conditions": "10^−6M"}},
  "note": "“Also recorded” adds a separate entry of the source.",
  "data": [
    {"smiles": "C=C1/C(=C\\C=C2/CCC[C@@]3(C)C2CC[C@@H]3C(C)CCCC(C)(C)O)C[C@@H](OC(=O)CBr)CC1O", "note": "(stereo partly drawn) [AMPI-109, 1α,25-dihydroxyvitamin D3-3-bromoacetate]", "values": [
      {"measurement": "stability in human serum", "setting": "Serum-stability study", "result": "corresponds to the peak of a standard sample"},
      {"measurement": "antiproliferative effect in DU-145 cells", "setting": "DU-145 cells; 2.5×10^−7M to 10^−6M, 20 hours", "result": "strong and dose-dependent antiproliferative effect"},
      {"measurement": "anti-proliferative effect in DU-145 cells", "setting": "DU-145 cells; 10^−6M, separate experiment", "result": "strong anti-proliferative effect; also recorded: significantly stronger antiproliferative agent than EB-1089"},
      {"measurement": "body weight", "setting": "[1]; 0.1 μg/kg i.p.", "result": "some reduction in body weight"},
      {"measurement": "anti-tumor effect", "setting": "[1]; 0.1 μg/kg i.p. every third day, day 11 to 30", "result": "strong anti-tumor effect"},
      {"measurement": "potency relative to calcitriol in reducing tumor-size", "setting": "[1]; i.p., weight basis", "result": "approximately 5 times"},
      {"measurement": "apoptosis", "setting": "[2]", "result": "induced apoptosis"},
      {"measurement": "anti-proliferative strength relative to calcitriol", "setting": "[2]; mole-per-mole basis", "result": "significantly stronger anti-proliferative agent than calcitriol"},
      {"measurement": "message for 24-OHase", "setting": "24-OHase", "result": "up regulated"},
      {"measurement": "VDR activation", "setting": "VDR", "result": "constitutively activated VDR"},
      {"measurement": "mortality", "setting": "[3]; 1 μg/kg i.p. every third day", "result": "All mice in the 1 μg/Kg dose died after three dosing"},
      {"measurement": "relative MTD", "setting": "[3]; i.p., every third day, based on dosing", "result": "≤ 3", "unit": "µg/kg"},
      {"measurement": "stability in mouse liver homogenate", "setting": "[4]", "result": "corresponds to the peak of a standard sample"},
      {"measurement": "growth of LNCaP cells", "setting": "[5]", "result": "almost completely inhibited the growth of LNCaP cells"},
      {"measurement": "reduction of proliferation of RCC 54 kidney cancer cells", "setting": "[6]", "result": "> 95", "unit": "%"},
      {"measurement": "anti-tumor effect", "setting": "[7]; 0.5 μg/kg p.o. oral gavage", "result": "strong anti-tumor effect"},
      {"measurement": "potency in p.o.-mode relative to i.p.-mode (times less potent)", "setting": "[7]; mouse, in vivo", "result": 5, "unit": "times"},
      {"measurement": "body weight", "setting": "[7]; p.o., calcitriol 0.5 μg/kg and 1.0 μg/kg, AMPI-109 0.5 μg/kg", "result": "did not cause any significant change in body weight"},
      {"measurement": "gross body-weights", "setting": "[8]", "result": "not significantly different from control animals"},
      {"measurement": "average size of tumors at the end of the experiment", "setting": "[8]; every third day, day 7 to 42", "result": "~475", "unit": "mm^3"},
      {"measurement": "impact on normal kidney cells versus control", "setting": "normal kidney cells", "result": "neither Calcitriol nor AMPI-109 had any statistically different impact"}
    ]}
  ]
}
